Measurements: patent US11339184B2, “Antibacterial compounds, compositions thereof, and methods using same” (priority 2019, dated 2022)
Converted amounts (≈) assume the structure as drawn. Like-named read-outs stand apart in the source and are kept apart here.

Assays:
[1] = test system: M. marinum; test: MIC against other mycobacteria: M. marinum; assay type: cell-based; details: Table 3, M. marinum
[2] = test system: M. smegmatis; test: MIC against other mycobacteria: M. smegmatis; assay type: cell-based; details: Table 3, M. smegmatis
[3] = test system: M. tuberculosis H37rv; test: Antibiotic assay against M. tuberculosis (MIC / IC90); assay type: cell-based, Mycobacterium tuberculosis; details: for IC90: H37Rv
[4] = test system: M. avium; test: MIC against other mycobacteria: M. avium; assay type: cell-based; details: Table 3, M. avium
[5] = test system: M. abscessus; test: MIC against other mycobacteria: M. abscessus; assay type: cell-based; details: Table 3, M. abscessus
[6] = test system: Gram-positive bacteria, including Staphylococcus aureus, Staphylococcus epidermidis, Listeria monocytogenes and M. tuberculosis; assay type: cell-based
[7] = Table 4, Formula III derivatives, M. tuberculosis H37rv

SMILES	MIC [1]	MIC [2]	MIC [3]	MIC ([3]; Table 3, M. tuberculosis H37rv, Trial 2)	MIC ([3]; Table 3, M. tuberculosis H37rv, Trial 3)	MIC ([3]; Table 3, M. tuberculosis H37rv, Trial 4)	MIC [3, 7]	MIC [4]	MIC [5]	activity as antibiotics against Gram-positive bacteria [6]	IC90 [3]
CO[C@H]1/C=C/O[C@@]2(C)Oc3c(C)c(O)c4c(O)c(c(/C=N/N5CCN(C)CC5)c(O)c4c3C2=O)NC(=O)/C(C)=C\C=C\[C@H](C)[C@H](O)[C@@H](C)[C@@H](O)[C@@H](C)[C@H](OC(C)=O)[C@@H]1C [Rif, rifampicin]	> 25 µg/mL	> 25 µg/mL	0.05 µg/mL (≈ 0.0608 µM)	0.31 µg/mL (≈ 0.377 µM)	0.31 µg/mL (≈ 0.377 µM)	0.31 µg/mL (≈ 0.377 µM)	< 0.02 µg/mL	< 0.195 µg/mL	> 25 µg/mL	–	–
CC(=O)OC1C(C)C(OC2CC3OCOC3C(C)O2)/C=C/OC2(C)CC(O)c3c(c(C)c(O)c4c3C(=O)C=C(NC(=O)/C(C)=C\C=C\C(C(C)OC(=O)C(C)(C)CC(=O)O)C(O)C(C)C(O)C1C)C4=O)O2 (centres unmarked) [kanglemycin V1]	–	–	–	–	–	–	–	–	–	active	3120 nM
CC(=O)OC1C(C)C(OC2CC3OCOC3C(C)O2)/C=C/OC2(C)OC3=C(C)C(=O)c4c(O)c(cc5c4C3=C2OCO5)NC(=O)/C(C)=C\C=C\C(C(C)OC(=O)C(C)(C)CC(=O)O)C(O)C(C)C(O)C1C (centres unmarked) [kanglemycin V2]	–	–	–	–	–	–	0.08 µg/mL (≈ 0.0803 µM)	–	–	active	1560 nM
